Four compounds from paper PMC8896685 (PLoS ONE, 2022) can be followed below.

One assay concerns the target T1, Rat GCGR (Rattus norvegicus, UniProt P30082).
T1 construct: a plasmid encoding either the glucagon receptor or the GLP-1 receptor from the relevant species; expressed in transfected cells
Nature of the assay: Receptor potency, CRE-luciferase functional assay in BHK cells. It is filed as cell-based. Conditions: Rat receptors, whole BHK cells, 0% plasma, 3 h 37°C, value (95% CI).

A further assay addresses T2, Rat GLP-1R (Rattus norvegicus, UniProt P32301).
T2 construct: a plasmid encoding either the glucagon receptor or the GLP-1 receptor from the relevant species; expressed in transfected cells
T2 sequence (P32301 22-463): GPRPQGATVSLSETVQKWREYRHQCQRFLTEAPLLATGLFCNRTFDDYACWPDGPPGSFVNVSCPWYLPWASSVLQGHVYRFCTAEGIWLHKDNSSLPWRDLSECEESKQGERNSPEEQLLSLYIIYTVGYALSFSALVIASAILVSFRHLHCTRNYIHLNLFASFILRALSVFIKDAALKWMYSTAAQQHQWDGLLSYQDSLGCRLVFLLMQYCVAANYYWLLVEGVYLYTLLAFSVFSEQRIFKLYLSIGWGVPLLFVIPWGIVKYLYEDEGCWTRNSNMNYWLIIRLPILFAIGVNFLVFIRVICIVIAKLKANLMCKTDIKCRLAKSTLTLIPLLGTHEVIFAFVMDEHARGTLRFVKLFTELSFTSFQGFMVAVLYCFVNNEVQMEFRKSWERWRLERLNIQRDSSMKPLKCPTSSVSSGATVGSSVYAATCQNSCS
Described as above. It is filed as cell-based. Conditions: Rat receptors, whole BHK cells, 0% plasma, 3 h 37°C, value (95% CI).

Assay [1] relates to DIO mice. Nature of the assay: Subchronic effect on glucose tolerance in DIO mice (IPGTT at steady state). It is filed as in vivo, mouse. As to conditions: after 3 weeks daily s.c. dosing, Cmax (5 h post dosing), p<0.001.
Another assay deals with T3, Mouse GCGR (Mus musculus, UniProt Q61606).
T3 construct: a plasmid encoding either the glucagon receptor or the GLP-1 receptor from the relevant species; expressed in transfected cells
T3 sequence (Q61606 27-485): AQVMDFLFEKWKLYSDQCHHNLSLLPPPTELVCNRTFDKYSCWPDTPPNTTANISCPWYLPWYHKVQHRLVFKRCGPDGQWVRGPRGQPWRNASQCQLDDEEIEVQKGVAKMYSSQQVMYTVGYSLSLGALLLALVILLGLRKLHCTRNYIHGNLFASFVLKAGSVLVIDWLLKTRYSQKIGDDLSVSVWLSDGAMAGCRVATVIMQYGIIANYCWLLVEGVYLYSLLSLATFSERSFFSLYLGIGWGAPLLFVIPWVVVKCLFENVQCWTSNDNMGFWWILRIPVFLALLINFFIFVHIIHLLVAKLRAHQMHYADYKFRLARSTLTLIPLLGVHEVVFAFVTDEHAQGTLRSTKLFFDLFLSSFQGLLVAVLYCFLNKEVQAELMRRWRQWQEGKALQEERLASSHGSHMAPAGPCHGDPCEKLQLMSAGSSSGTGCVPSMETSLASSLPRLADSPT
The assay can be described thus: Receptor binding, SPA competitive binding assay. Conditions: SPA competitive binding on BHK cell membranes, [125I]-glucagon tracer, 1% species specific plasma, 2 h 30°C; value (95% CI).

For assay [2], the system named is DIO mice. Nature of the assay: Acute effect on glucose tolerance in DIO mice (IPGTT). It is filed as in vivo, mouse. Conditions: 3 or 5 nmol/kg s.c., at Cmax and at Cmin, p<0.001. The protocol: All animals received a single s.c. injection of compound at 4 pm, 21 h prior to administration of glucose (for all treated animals to have equally affected food intake in the dark period prior to the intraperitoneal glucose tolerance test (IPGTT)). […] Animals were fasted for 5–6 h prior to intraperitoneal (i.p.) injection of 2 g/kg glucose.

The target of another assay is T4, Human GCGR (Homo sapiens, UniProt P47871).
T4 construct: a plasmid encoding either the glucagon receptor or the GLP-1 receptor from the relevant species; expressed in transfected cells
T4 sequence (P47871 26-477): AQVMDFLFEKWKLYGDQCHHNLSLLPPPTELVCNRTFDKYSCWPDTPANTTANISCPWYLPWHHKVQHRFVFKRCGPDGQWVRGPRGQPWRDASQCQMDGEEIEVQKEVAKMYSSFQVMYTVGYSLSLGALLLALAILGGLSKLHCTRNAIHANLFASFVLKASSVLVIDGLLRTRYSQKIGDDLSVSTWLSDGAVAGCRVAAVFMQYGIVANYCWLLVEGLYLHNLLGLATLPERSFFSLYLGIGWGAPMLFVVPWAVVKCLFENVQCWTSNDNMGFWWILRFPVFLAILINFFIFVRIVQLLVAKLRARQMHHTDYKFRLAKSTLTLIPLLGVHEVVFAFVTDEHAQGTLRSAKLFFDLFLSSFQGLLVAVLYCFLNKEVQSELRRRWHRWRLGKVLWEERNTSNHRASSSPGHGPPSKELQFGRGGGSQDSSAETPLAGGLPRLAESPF
The assay can be described thus: Receptor potency, CRE-luciferase functional assay in BHK cells. It is filed as cell-based. As to conditions: Human receptors, whole BHK cells, 3 h 37°C, value (95% CI).

Another assay concerns the target Human GLP-1R (Homo sapiens, UniProt P43220). The assay is described as above. It counts as cell-based. As to conditions: Human receptors, whole BHK cells, 100% species-specific plasma, 3 h 37°C, value (95% CI).

Numbered stars: 1 amine (or outer) side, 2 acyl side, 3 side chain; on linkers, the order of the positions; unused ones are H or OH. Square brackets hold non-standard residues; d marks the D form. Side chains are listed from the residue outwards. Peptide text beside a SMILES is read from it. * marks the point of attachment. C18 diacid = O=C(O)CCCCCCCCCCCCCCCCC(=O)*; γGlu = O=C(O)[C@H](CCC(=O)[*:2])N[*:1]; Desaminohistidyl = O=C(CCc1c[nH]cn1)*; Ac4c = NC1(C(=O)O)CCC1; AEEA = NCCOCCOCC(=O)O; Aib = CC(C)(N)C(=O)O

T1 sequence (P30082 27-485): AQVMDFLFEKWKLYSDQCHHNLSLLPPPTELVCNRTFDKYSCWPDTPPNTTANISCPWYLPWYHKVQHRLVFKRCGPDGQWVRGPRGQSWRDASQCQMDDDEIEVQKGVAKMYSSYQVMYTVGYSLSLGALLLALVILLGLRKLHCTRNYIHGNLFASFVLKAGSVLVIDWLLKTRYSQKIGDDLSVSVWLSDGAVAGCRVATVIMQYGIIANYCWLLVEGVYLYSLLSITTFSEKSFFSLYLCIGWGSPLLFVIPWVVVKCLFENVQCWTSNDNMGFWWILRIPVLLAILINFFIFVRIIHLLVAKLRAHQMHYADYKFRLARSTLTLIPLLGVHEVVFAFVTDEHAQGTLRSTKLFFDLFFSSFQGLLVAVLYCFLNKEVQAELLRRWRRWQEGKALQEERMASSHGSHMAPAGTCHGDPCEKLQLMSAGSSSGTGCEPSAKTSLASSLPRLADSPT
Chain of Human GLP-1R (P43220 24-463): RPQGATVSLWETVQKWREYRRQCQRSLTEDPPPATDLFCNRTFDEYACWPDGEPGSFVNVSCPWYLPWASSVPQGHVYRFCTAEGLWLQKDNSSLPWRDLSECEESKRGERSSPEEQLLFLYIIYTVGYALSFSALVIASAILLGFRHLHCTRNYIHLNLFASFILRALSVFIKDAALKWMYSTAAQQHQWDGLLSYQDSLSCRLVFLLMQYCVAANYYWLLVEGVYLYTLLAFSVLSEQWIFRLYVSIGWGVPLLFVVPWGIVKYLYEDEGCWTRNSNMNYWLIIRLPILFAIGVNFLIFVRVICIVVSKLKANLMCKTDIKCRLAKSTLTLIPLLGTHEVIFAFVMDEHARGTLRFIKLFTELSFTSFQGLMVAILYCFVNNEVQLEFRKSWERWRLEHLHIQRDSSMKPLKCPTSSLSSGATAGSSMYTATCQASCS

Regarding `CC(C)C[C@H](NC(=O)[C@H](CC(C)C)NC(=O)[C@H](Cc1c[nH]c2ccccc12)NC(=O)[C@H](CCC(N)=O)NC(=O)[C@@H](NC(=O)[C@H](Cc1ccccc1)NC(=O)[C@H](CCC(=O)O)NC(=O)[C@H](CCCNC(=N)N)NC(=O)[C@H](C)NC(=O)[C@H](C)NC(=O)[C@H](CCCNC(=N)N)NC(=O)[C@H](CO)NC(=O)[C@H](CC(=O)O)NC(=O)[C@H](CC(C)C)NC(=O)[C@H](Cc1ccc(O)cc1)NC(=O)[C@H](CCCCN)NC(=O)[C@H](CO)NC(=O)[C@H](CC(C)C)NC(=O)[C@H](CC(=O)O)NC(=O)[C@H](CO)NC(=O)[C@@H](NC(=O)[C@H](Cc1ccccc1)NC(=O)[C@@H](NC(=O)CNC(=O)[C@H](CCC(=O)O)NC(=O)C(C)(C)NC(=O)[C@@H](N)Cc1c[nH]cn1)[C@@H](C)O)[C@@H](C)O)C(C)C)C(=O)N[C@@H](CC(N)=O)C(=O)N[C@@H](CCCCNC(=O)CC[C@H](NC(=O)CC[C@H](NC(=O)COCCOCCNC(=O)COCCOCCNC(=O)CC[C@H](NC(=O)CCCCCCCCCCCCCCCCC(=O)O)C(=O)O)C(=O)O)C(=O)O)C(N)=O` [GLP-1 reference] (H-H[Aib]EGTFTSDLSKYLDSRAAREFVQWLLNK([γGlu-γGlu-AEEA-AEEA-γGlu-C18 diacid])-NH2), the values for the EC50 at Rat GCGR and at Rat GLP-1R were 35.3 nM and 0.00299 nM, respectively.

With `CC(C)C[C@H](NC(=O)[C@H](CC(=O)O)NC(=O)[C@H](CC(C)C)NC(=O)[C@H](Cc1ccc(O)cc1)NC(=O)[C@H](CCCCN)NC(=O)[C@H](CO)NC(=O)[C@H](CC(C)C)NC(=O)[C@H](CC(=O)O)NC(=O)[C@H](CO)NC(=O)[C@@H](NC(=O)[C@H](Cc1ccccc1)NC(=O)[C@@H](NC(=O)CNC(=O)[C@H](CCC(N)=O)NC(=O)C1(NC(=O)[C@@H](N)Cc2c[nH]cn2)CCC1)[C@@H](C)O)[C@@H](C)O)C(=O)N[C@@H](CCCNC(=N)N)C(=O)N[C@@H](CCCNC(=N)N)C(=O)N[C@@H](C)C(=O)N[C@@H](CCCNC(=N)N)C(=O)N[C@@H](CC(=O)O)C(=O)N[C@@H](Cc1ccccc1)C(=O)N[C@H](C(=O)N[C@@H](CCC(N)=O)C(=O)N[C@@H](Cc1c[nH]c2ccccc12)C(=O)N[C@@H](CC(C)C)C(=O)N[C@@H](CC(C)C)C(=O)N[C@@H](CCCCNC(=O)CC[C@H](NC(=O)CC[C@H](NC(=O)COCCOCCNC(=O)COCCOCCNC(=O)CC[C@H](NC(=O)CC[C@H](NC(=O)CCCCCCCCCCCCCCCCC(=O)O)C(=O)O)C(=O)O)C(=O)O)C(=O)O)C(=O)N[C@H](C(N)=O)[C@@H](C)O)C(C)C` [NN1151] (H-H[Ac4c]QGTFTSDLSKYLDLRRARDFVQWLLK([γGlu-γGlu-AEEA-AEEA-γGlu-γGlu-C18 diacid])T-NH2), the “Basal blood glucose vs vehicle” value with DIO mice [1] is on record as “improved”.

For `CC(C)C[C@H](NC(=O)[C@H](Cc1ccc(O)cc1)NC(=O)[C@H](CCCCN)NC(=O)[C@H](CO)NC(=O)[C@H](CC(C)C)NC(=O)[C@H](CC(=O)O)NC(=O)[C@H](CO)NC(=O)[C@@H](NC(=O)[C@H](Cc1ccccc1)NC(=O)[C@@H](NC(=O)CNC(=O)[C@H](CCC(N)=O)NC(=O)C(C)(C)NC(=O)[C@@H](N)Cc1c[nH]cn1)[C@@H](C)O)[C@@H](C)O)C(=O)N[C@@H](CCC(=O)O)C(=O)N[C@@H](CO)C(=O)N[C@@H](CCCCN)C(=O)N[C@@H](CCCNC(=N)N)C(=O)N[C@@H](C)C(=O)N[C@@H](CCCNC(=N)N)C(=O)N[C@@H](CCC(=O)O)C(=O)N[C@@H](Cc1ccccc1)C(=O)N[C@H](C(=O)N[C@@H](CCC(N)=O)C(=O)N[C@@H](Cc1c[nH]c2ccccc12)C(=O)N[C@@H](CC(C)C)C(=O)N[C@@H](CC(C)C)C(=O)N[C@@H](CCCCNC(=O)CC[C@H](NC(=O)CC[C@H](NC(=O)[C@H](CO)NC(=O)[C@H](CCC(=O)O)NC(=O)[C@H](CO)NC(=O)CC[C@H](NC(=O)CC[C@H](NC(=O)CCCCCCCCCCCCCCCCC(=O)O)C(=O)O)C(=O)O)C(=O)O)C(=O)O)C(=O)N[C@H](C(N)=O)[C@@H](C)O)C(C)C` [NN1177] (H-H[Aib]QGTFTSDLSKYLESKRAREFVQWLLK([γGlu-γGlu-Ser-Glu-Ser-γGlu-γGlu-C18 diacid])T-NH2), the IC50 on Mouse GCGR stood at 0.29 nM. For the same compound, in the assay with DIO mice [2] (2 g/kg glucose i.p.), the “Glucose tolerance (IPGTT) vs vehicle” value is recorded as “improved”. Besides, in the assay with DIO mice [2], the “Basal blood glucose vs vehicle” value is listed as “improved”. The EC50 at Human GCGR (GCGR EC50, pM (95% CI) 0% plasma, 0% plasma) is 1.83 pM; at Human GCGR (GCGR EC50, pM (95% CI) 100% plasma, 100% species-specific plasma) it was 312 pM; at Human GLP-1R, 0.149 nM; at Rat GCGR, 0.00183 nM.

As to `CC[C@H](C)[C@H](NC(=O)[C@H](Cc1ccccc1)NC(=O)[C@H](CCC(=O)O)NC(=O)[C@H](CCCNC(=N)N)NC(=O)[C@H](C)NC(=O)[C@H](C)NC(=O)[C@H](CCC(N)=O)NC(=O)[C@H](CCC(=O)O)NC(=O)[C@H](CCC(=O)O)NC(=O)[C@H](CC(C)C)NC(=O)[C@H](Cc1ccc(O)cc1)NC(=O)[C@H](CCCCN)NC(=O)[C@H](CO)NC(=O)[C@@H](NC(=O)[C@H](CC(=O)O)NC(=O)[C@H](CO)NC(=O)[C@@H](NC(=O)[C@H](Cc1ccccc1)NC(=O)[C@@H](NC(=O)CNC(=O)[C@H](Cc1c[nH]cn1)NC(=O)C(C)(C)NC(=O)CCc1c[nH]cn1)[C@@H](C)O)[C@@H](C)O)C(C)C)C(=O)N[C@@H](C)C(=O)N[C@@H](Cc1c[nH]c2ccccc12)C(=O)N[C@@H](CC(C)C)C(=O)N[C@@H](CC(C)C)C(=O)N[C@@H](CCCCNC(=O)COCCOCCNC(=O)COCCOCCNC(=O)CC[C@H](NC(=O)CC[C@H](NC(=O)CCCCCCCCCCCCCCCCC(=O)O)C(=O)O)C(=O)O)C(=O)N[C@H](C(N)=O)[C@@H](C)O` [NN1359] (Desaminohistidyl-[Aib]HGTFTSDVSKYLEEQAAREFIAWLLK([AEEA-AEEA-γGlu-γGlu-C18 diacid])T-NH2), at Mouse GCGR, the IC50 is 14 nM. Moreover, the “Basal blood glucose vs vehicle” value in the assay on DIO mice [1] is “significantly improved”.
